Experimental data reported in US11419869B2, “Dosage forms and regimens for amino acid compounds” (Pliant Therapeutics, Inc., priority 2019, dated 2022).

Tests used:
[1] = target: recombinant human integrin αvβ6 (Homo sapiens (Human), UniProt P06756+P18564); experiment: Solid Phase Integrin αvβ6 Binding Assay (Examples B1, B2); settings: TGFβ1 LAP ligand, values given in four ranges, read-out: αvβ6 Inhibition IC50 (nM)-range
Method in brief: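 Plates coated with recombinant human αvβ6 (2 μg/mL) compete compound against recombinant TGFβ1 LAP (0.67 μg/mL) in TBS binding buffer with 0.5 mM MnCl2, 2 h at 25 °C. Bound LAP detected with biotin-anti-hLAP and peroxidase-streptavidin; IC50 by four-parameter logistic regression.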

lung Col1a1 expression = experiment: Precision cut lung slices, mice under chronic bleomycin exposure (Example B9); assay type: cell-based; settings: 7 days culture, normalized to DMSO, FIG. 5B
Procedure: Mice (C57BL/6) were administered 3 U/kg of bleomycin (Teva Pharmaceuticals; North Wales, Pa.) on Day 0 and 1 U/kg of bleomycin on days 14, 28, 42 and 56 via oropharyngeal aspiration while under anesthesia. At day 70, 14 days after the final bleomycin insult, precision cut lung slices were obtained. Following euthanization, 2% low gelling temp agarose was injected into the mouse lungs via the trachea. […] The lobes were then subjected to precision slicing to obtain samples for culture using a microtome (Compresstome VF-300-0Z, Precisionary; Greenville, N.C.). Individual slices were distributed in a multiwell culture plate and cultured for 7 days under control (DMSO) and test compound conditions. The viability of the slices over the course of culturing was confirmed by WST-1 assay of mitochondrial activity.
During the culture period, slices in the control group were treated with DMSO and slices in the test group were treated with a DMSO solution of one of: the selective antibody αvβ6 inhibitor 3G9; the αvβ1-selective small molecule inhibitor; a combination of the selective antibody αvβ6 inhibitor 3G9 and the αvβ1-selective small molecule inhibitor; compound 5; and the small molecule ALK5 inhibitor. The selective αvβ1 and αvβ6 integrin inhibitors were analyzed at ≥their respective IC90 concentrations for inhibition of TGF-beta activation. […]

pSMAD2/SMAD2 ratio = experiment: Precision cut lung slices from human IPF lung tissue, pSMAD2/SMAD2 ratio; assay type: cell-based; settings: PCLS from 3 IPF lung tissues, seven days, Compound 5 at 1.82 μM, FIG. 6F
Procedure: PCLS from 3 IPF lung tissues were cultured for seven days with Compound 5. […] The ratio of pSMAD2/SMAD2 is also graphed for the PCLS in the presence of 0.1% DMSO control, and an Alk5 inhibitor at 1 μM

[2] = test system: normal bronchial epithelial cell adhesion to LAP; experiment: normal bronchial epithelial cell adhesion to LAP (FIG. 3A); assay type: cell-based
[3] = test system: IPF-derived human lung fibroblasts; experiment: LAP adhesion binding assay, IPF-derived human lung fibroblasts; assay type: cell-based; settings: adhesion to LAP, cell index (electrical impedance), FIG. 3B
Procedure: (§1) Two latency associated peptide (LAP) adhesion binding assays were devised using primary human lung cells, including normal (healthy) human bronchial epithelial cells and human lung fibroblasts (healthy and IPF).
Human lung fibroblasts derived from normal and IPF lung tissue are known to express αvβ1 integrin. The IPF-derived human lung fibroblasts were prepared for the assay by dissociation with trypsin/EDTA, and were seeded at 20,000 cells per well on 96 well plates (ACEA Bioscience E-plate View, Acea Biosciences; San Diego, Calif.) previously coated with 5 μg/ml of recombinant human LAP (R&D Systems; Minneapolis, Minn.) and blocked with 4% bovine serum albumin. Cell index (electrical impedance) was measured to assess cell attachment/spreading every 3 minutes for 24 hours at 37° C./5% CO2 using the xCELLigence RTCA MP Instrument (Acea Biosciences; San Diego, Calif.). […] In the assay, the IPF-derived human lung fibroblasts were separately incubated with: the αvβ1-selective small molecule inhibitor; the selective antibody αvβ6 inhibitor, 3G9; and compound 5.

[4] = test system: normal (healthy) human bronchial epithelial cells; experiment: LAP adhesion binding assay, normal human bronchial epithelial cells; assay type: cell-based; settings: cell index (electrical impedance), FIG. 3A
Procedure: as §1
Human bronchial epithelial cells are known to express αvβ6 integrin in culture. Human bronchial epithelial cells were prepared for the assay by dissociation with trypsin/EDTA and were then seeded at 20,000 cells per well on 96 well plates (ACEA Bioscience E-plate View, Acea Biosciences; San Diego, Calif.) previously coated with 5 μg/ml of recombinant human LAP (R&D Systems; Minneapolis, Minn.) and blocked with 4% bovine serum albumin. Cell index (electrical impedance) was measured to assess cell attachment/spreading every 3 minutes for 24 hours at 37° C./5% CO2 using the xCELLigence RTCA MP Instrument (Acea Biosciences; San Diego, Calif.).

Chain of recombinant human integrin αvβ6 (P06756 31-992): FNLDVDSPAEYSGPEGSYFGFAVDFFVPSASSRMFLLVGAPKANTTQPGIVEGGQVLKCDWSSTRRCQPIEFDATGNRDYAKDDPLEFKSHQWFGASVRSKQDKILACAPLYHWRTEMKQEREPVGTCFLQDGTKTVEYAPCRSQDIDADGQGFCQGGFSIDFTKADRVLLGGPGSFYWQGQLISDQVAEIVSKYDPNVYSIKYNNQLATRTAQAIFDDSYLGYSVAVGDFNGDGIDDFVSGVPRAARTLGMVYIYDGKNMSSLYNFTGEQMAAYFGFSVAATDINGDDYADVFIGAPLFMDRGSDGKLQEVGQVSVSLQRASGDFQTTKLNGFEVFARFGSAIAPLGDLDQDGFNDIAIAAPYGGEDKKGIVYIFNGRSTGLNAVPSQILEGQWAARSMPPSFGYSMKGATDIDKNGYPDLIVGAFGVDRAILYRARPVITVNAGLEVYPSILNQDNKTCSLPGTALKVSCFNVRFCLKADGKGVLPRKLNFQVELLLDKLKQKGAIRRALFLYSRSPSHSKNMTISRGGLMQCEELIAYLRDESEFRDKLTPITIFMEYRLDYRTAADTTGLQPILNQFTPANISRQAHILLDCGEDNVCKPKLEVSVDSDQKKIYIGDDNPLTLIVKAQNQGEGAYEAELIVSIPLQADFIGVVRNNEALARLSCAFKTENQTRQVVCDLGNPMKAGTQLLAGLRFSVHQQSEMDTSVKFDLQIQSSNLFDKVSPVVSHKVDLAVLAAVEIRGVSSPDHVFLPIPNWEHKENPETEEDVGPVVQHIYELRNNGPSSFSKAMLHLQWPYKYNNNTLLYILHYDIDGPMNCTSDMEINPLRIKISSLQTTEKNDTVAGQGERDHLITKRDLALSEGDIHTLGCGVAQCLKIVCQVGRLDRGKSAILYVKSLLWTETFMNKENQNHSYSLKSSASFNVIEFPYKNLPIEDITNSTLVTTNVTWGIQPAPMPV
Chain of recombinant human integrin αvβ6 (P18564 22-707): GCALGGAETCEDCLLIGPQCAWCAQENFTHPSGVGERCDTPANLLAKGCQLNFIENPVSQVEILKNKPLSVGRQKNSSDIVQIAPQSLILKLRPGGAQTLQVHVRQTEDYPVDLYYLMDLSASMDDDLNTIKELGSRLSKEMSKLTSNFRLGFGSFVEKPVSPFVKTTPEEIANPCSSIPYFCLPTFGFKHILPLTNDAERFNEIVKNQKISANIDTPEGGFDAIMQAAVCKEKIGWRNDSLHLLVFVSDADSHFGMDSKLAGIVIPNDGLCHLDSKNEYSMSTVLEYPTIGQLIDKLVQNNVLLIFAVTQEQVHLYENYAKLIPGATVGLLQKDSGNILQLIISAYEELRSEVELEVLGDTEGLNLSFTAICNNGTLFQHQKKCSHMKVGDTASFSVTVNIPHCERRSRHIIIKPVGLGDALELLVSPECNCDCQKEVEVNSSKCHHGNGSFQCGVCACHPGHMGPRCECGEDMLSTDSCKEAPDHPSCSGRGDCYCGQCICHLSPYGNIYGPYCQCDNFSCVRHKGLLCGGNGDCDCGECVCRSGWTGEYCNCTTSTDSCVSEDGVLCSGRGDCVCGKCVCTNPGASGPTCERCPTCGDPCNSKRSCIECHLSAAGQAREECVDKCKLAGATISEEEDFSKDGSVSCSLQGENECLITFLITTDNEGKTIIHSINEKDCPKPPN

COCCN(CCCCc1ccc2c(n1)NCCC2)CC[C@H](Nc1ncnc2ccccc12)C(=O)O [Compound 5, (S)-4-((2-methoxyethyl) (4-(5,6,7,8-tetrahydro-1,8-naphthyridin-2-yl)butyl)amino)-2-(quinazolin-4-ylamino) butanoic acid]
IC50 [1]: < 50 nM | lung Col1a1 expression (lung Col1a1 expression): decreased lung Col1a1 expression substantially | reduction of pSMAD2/SMAD2 ratio (pSMAD2/SMAD2 ratio): approximately 50% | normal bronchial epithelial cell adhesion to LAP [2]: substantially inhibited | cell adhesion in the IPF-derived lung fibroblasts [3]: substantially inhibited | normal bronchial epithelial cell adhesion to LAP [4]: substantially inhibited
